From patent US20260022142A1, “MACROCYCLIC IMMUNOMODULATORS” (Bristol-Myers Squibb Company, priority 2022, published 2026)
Bridge positions count the residues as written; N and C are the ends. Square brackets hold non-standard residues; d marks the D form. Peptide text beside a SMILES is read from it. * marks the point of attachment. ξ: configuration not given here. Phe(4-COOH) = N[C@@H](Cc1ccc(C(=O)O)cc1)C(=O)O; Bip = N[C@@H](Cc1ccc(-c2ccccc2)cc1)C(=O)O; Phe(3-Me) = Cc1cccc(C[C@H](N)C(=O)O)c1; ξBip = NC(Cc1ccc(-c2ccccc2)cc1)C(=O)O; 4Pal = N[C@@H](Cc1ccncc1)C(=O)O; Cha = N[C@@H](CC1CCCCC1)C(=O)O; Cit = NC(=O)NCCC[C@H](N)C(=O)O; Carboxymethyl = O=C(O)C*; Orn = NCCC[C@H](N)C(=O)O; Pra = C#CC[C@H](N)C(=O)O; Aun = NCCCCCCCCCCC(=O)O; Dab = NCC[C@H](N)C(=O)O; Dap = NC[C@H](N)C(=O)O; ξD = NC(CC(=O)O)C(=O)O; AEEA = NCCOCCOCC(=O)O

Target: T1, PD-1/PD-L1 interaction (PE-labeled human PD-L1-Ig binding to Jurkat cell line over-expressing human PD-1) (Homo sapiens, UniProt Q15116)
T1 construct: expressed in transfected cells; host or cells: Jurkat
Assay: Jurkat-PD-1 Cell Binding High-Content Screening Assay (CBA)
Type: cell-based
Settings: Jurkat cell line over-expressing human PD-1; PE-labeled PD-L1-Ig 20 nM final; read-out: Jurkat hPD1-PDL1 IC50
How it was run: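 Jurkat cells stably over-expressing human PD-1 were seeded in DMEM with 10% fetal calf serum and pre-incubated with compound for 2 h at 37° C. PE-labeled human PD-L1-Ig was then added at 20 nM final for 1 hour, after which cells were fixed with paraformaldehyde, Hoechst-stained and imaged by high-content microscopy.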

T1 sequence (Q15116 25-288): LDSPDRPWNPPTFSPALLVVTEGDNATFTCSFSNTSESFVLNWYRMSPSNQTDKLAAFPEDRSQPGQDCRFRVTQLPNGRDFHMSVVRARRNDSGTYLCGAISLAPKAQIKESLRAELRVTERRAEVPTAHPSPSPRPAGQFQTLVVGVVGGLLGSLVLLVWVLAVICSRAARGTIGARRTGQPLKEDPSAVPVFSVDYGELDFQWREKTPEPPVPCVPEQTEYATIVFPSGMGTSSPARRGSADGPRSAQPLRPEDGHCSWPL

An IC50 of 10.3 nM was found for `Cc1cccc(C[C@@H]2NC(=O)C(CC(=O)O)NC(=O)[C@H](Cc3ccc(OCC(=O)O)cc3)NC(=O)[C@H](CN)NC(=O)CSC[C@@H](C(=O)NCCOCCOCC(=O)N[C@@H](CCCCN)C(=O)NCCCCCCCCCCC(=O)O)NC(=O)[C@H]([C@@H](C)O)NC(=O)[C@H](C(C)C)NC(=O)[C@H](CC3CCCCC3)NC(=O)[C@H](CCN)NC(=O)[C@@H](CC(C)C)NC(=O)[C@H](CCCN)NC(=O)[C@H](CCCNC(N)=O)NC(=O)C(Cc3ccc(-c4ccccc4)cc3)NC(=O)[C@H](C(C)C)NC2=O)c1` (stereo partly drawn) [Compound 1179] ({CH2CO}-[Dap]Y(Carboxymethyl)[ξD][Phe(3-Me)]V[ξBip][Cit][Orn][dL][Dab][Cha]VTC[AEEA]K[Aun]-OH; thioether N-14) in this work.
An IC50 of 18.4 nM was found for `Cc1cccc(C[C@@H]2NC(=O)C(CC(=O)O)NC(=O)[C@H](Cc3ccc(OCC(=O)O)cc3)NC(=O)[C@H](CN)NC(=O)CSC[C@@H](C(=O)NCCOCCOCC(=O)N[C@@H](CCCNC(=N)N)C(=O)NCCCCCCCCCCC(=O)O)NC(=O)[C@H]([C@@H](C)O)NC(=O)[C@H](C(C)C)NC(=O)[C@H](CC3CCCCC3)NC(=O)[C@H](CCN)NC(=O)[C@@H](CC(C)C)NC(=O)[C@H](CCCN)NC(=O)[C@H](CCCNC(N)=O)NC(=O)C(Cc3ccc(-c4ccccc4)cc3)NC(=O)[C@H](C(C)C)NC2=O)c1` (stereo partly drawn) [Compound 1180] ({CH2CO}-[Dap]Y(Carboxymethyl)[ξD][Phe(3-Me)]V[ξBip][Cit][Orn][dL][Dab][Cha]VTC[AEEA]R[Aun]-OH; thioether N-14) in this work.
An IC50 of 11.7 nM was found for `Cc1cccc(C[C@@H]2NC(=O)C(CC(=O)O)NC(=O)[C@H](Cc3ccc(OCC(=O)O)cc3)NC(=O)[C@H](CN)NC(=O)CSC[C@@H](C(=O)N[C@@H](CN)C(=O)NCCCCCCCCCCC(=O)O)NC(=O)[C@H]([C@@H](C)O)NC(=O)[C@H](C(C)C)NC(=O)[C@H](CC3CCCCC3)NC(=O)[C@H](CCN)NC(=O)[C@@H](CC(C)C)NC(=O)[C@H](CCCN)NC(=O)[C@H](CCCNC(N)=O)NC(=O)C(Cc3ccc(-c4ccccc4)cc3)NC(=O)[C@H](C(C)C)NC2=O)c1` (stereo partly drawn) [Compound 1181] ({CH2CO}-[Dap]Y(Carboxymethyl)[ξD][Phe(3-Me)]V[ξBip][Cit][Orn][dL][Dab][Cha]VTC[Dap][Aun]-OH; thioether N-14) in this work.
An IC50 of 43.7 nM was found for `CC[C@H](C)[C@@H]1NC(=O)[C@H](Cc2ccc(-c3ccccc3)cc2)NC(=O)[C@H](C(C)C)NC(=O)[C@H](Cc2cccc(C)c2)NC(=O)[C@H](CC(=O)O)NC(=O)[C@H](Cc2ccc(C(=O)O)cc2)NC(=O)[C@H](Cc2ccncc2)NC(=O)CSC[C@@H](C(=O)NCCOCCOCC(=O)NCCCCCCCCCCC(=O)O)NC(=O)[C@H]([C@@H](C)O)NC(=O)[C@H](C(C)C)NC(=O)[C@H](CC2CCCCC2)NC(=O)[C@H](CCN)NC(=O)[C@@H](CC(C)C)NC(=O)[C@H](CCCN)NC1=O` [Compound 1182] in this work.
An IC50 of 51.5 nM was found for `CC[C@H](C)[C@@H]1NC(=O)[C@H](Cc2ccc(-c3ccccc3)cc2)NC(=O)[C@H](C(C)C)NC(=O)[C@H](Cc2cccc(C)c2)NC(=O)[C@H](CC(=O)O)NC(=O)[C@H](Cc2ccc(C(=O)O)cc2)NC(=O)[C@H](Cc2ccncc2)NC(=O)CSC[C@@H](C(=O)N[C@@H](CCCN)C(=O)NCCCCCCCCCCC(=O)O)NC(=O)[C@H]([C@@H](C)O)NC(=O)[C@H](C(C)C)NC(=O)[C@H](CC2CCCCC2)NC(=O)[C@H](CCN)NC(=O)[C@@H](CC(C)C)NC(=O)[C@H](CCCN)NC1=O` [Compound 1184] in this work.
An IC50 of 44.2 nM was found for `CC[C@H](C)[C@@H]1NC(=O)[C@H](Cc2ccc(-c3ccccc3)cc2)NC(=O)[C@H](C(C)C)NC(=O)[C@H](Cc2cccc(C)c2)NC(=O)[C@H](CC(=O)O)NC(=O)[C@H](Cc2ccc(C(=O)O)cc2)NC(=O)[C@H](Cc2ccncc2)NC(=O)CSC[C@@H](C(=O)N[C@@H](CCCCN)C(=O)NCCCCCCCCCCC(=O)O)NC(=O)[C@H]([C@@H](C)O)NC(=O)[C@H](C(C)C)NC(=O)[C@H](CC2CCCCC2)NC(=O)[C@H](CCN)NC(=O)[C@@H](CC(C)C)NC(=O)[C@H](CCCN)NC1=O` [Compound 1185] in this work.
An IC50 of 103 nM was found for `CC[C@H](C)[C@@H]1NC(=O)[C@H](Cc2ccc(-c3ccccc3)cc2)NC(=O)[C@H](C(C)C)NC(=O)[C@H](Cc2cccc(C)c2)NC(=O)[C@H](CC(=O)O)NC(=O)[C@H](Cc2ccc(C(=O)O)cc2)NC(=O)[C@H](Cc2ccncc2)NC(=O)CSC[C@@H](C(=O)N[C@@H](CCCNC(=N)N)C(=O)NCCCCCCCCCCC(=O)O)NC(=O)[C@H]([C@@H](C)O)NC(=O)[C@H](C(C)C)NC(=O)[C@H](CC2CCCCC2)NC(=O)[C@H](CCN)NC(=O)[C@@H](CC(C)C)NC(=O)[C@H](CCCN)NC1=O` [Compound 1186] in this work.
An IC50 of 62.8 nM was found for `CC[C@H](C)[C@@H]1NC(=O)[C@H](Cc2ccc(-c3ccccc3)cc2)NC(=O)[C@H](C(C)C)NC(=O)[C@H](Cc2cccc(C)c2)NC(=O)[C@H](CC(=O)O)NC(=O)[C@H](Cc2ccc(C(=O)O)cc2)NC(=O)[C@H](Cc2ccncc2)NC(=O)CSC[C@@H](C(=O)N[C@@H](Cc2cnc[nH]2)C(=O)NCCCCCCCCCCC(=O)O)NC(=O)[C@H]([C@@H](C)O)NC(=O)[C@H](C(C)C)NC(=O)[C@H](CC2CCCCC2)NC(=O)[C@H](CCN)NC(=O)[C@@H](CC(C)C)NC(=O)[C@H](CCCN)NC1=O` [Compound 1187] in this work.
An IC50 of 148 nM was found for `CC[C@H](C)[C@@H]1NC(=O)[C@H](Cc2ccc(-c3ccccc3)cc2)NC(=O)[C@H](C(C)C)NC(=O)[C@H](Cc2cccc(C)c2)NC(=O)[C@H](CC(=O)O)NC(=O)[C@H](Cc2ccc(C(=O)O)cc2)NC(=O)[C@H](Cc2ccncc2)NC(=O)CSC[C@@H](C(=O)NCCOCCOCC(=O)N[C@@H](CN)C(=O)NCCCCCCCCCCC(=O)O)NC(=O)[C@H]([C@@H](C)O)NC(=O)[C@H](C(C)C)NC(=O)[C@H](CC2CCCCC2)NC(=O)[C@H](CCN)NC(=O)[C@@H](CC(C)C)NC(=O)[C@H](CCCN)NC1=O` [Compound 1188] ({CH2CO}-[4Pal][Phe(4-COOH)]D[Phe(3-Me)]V[Bip]I[Orn][dL][Dab][Cha]VTC[AEEA][Dap][Aun]-OH; thioether N-14) in this work.
An IC50 of 23.6 nM was found for `CC[C@H](C)[C@@H]1NC(=O)[C@H](Cc2ccc(-c3ccccc3)cc2)NC(=O)[C@H](C(C)C)NC(=O)[C@H](Cc2cccc(C)c2)NC(=O)[C@H](CC(=O)O)NC(=O)[C@H](Cc2ccc(C(=O)O)cc2)NC(=O)[C@H](Cc2ccncc2)NC(=O)CSC[C@@H](C(=O)NCCOCCOCC(=O)N[C@@H](CCN)C(=O)NCCCCCCCCCCC(=O)O)NC(=O)[C@H]([C@@H](C)O)NC(=O)[C@H](C(C)C)NC(=O)[C@H](CC2CCCCC2)NC(=O)[C@H](CCN)NC(=O)[C@@H](CC(C)C)NC(=O)[C@H](CCCN)NC1=O` [Compound 1189] ({CH2CO}-[4Pal][Phe(4-COOH)]D[Phe(3-Me)]V[Bip]I[Orn][dL][Dab][Cha]VTC[AEEA][Dab][Aun]-OH; thioether N-14) in this work.
An IC50 of 24.8 nM was found for `CC[C@H](C)[C@@H]1NC(=O)[C@H](Cc2ccc(-c3ccccc3)cc2)NC(=O)[C@H](C(C)C)NC(=O)[C@H](Cc2cccc(C)c2)NC(=O)[C@H](CC(=O)O)NC(=O)[C@H](Cc2ccc(C(=O)O)cc2)NC(=O)[C@H](Cc2ccncc2)NC(=O)CSC[C@@H](C(=O)NCCOCCOCC(=O)N[C@@H](CCCN)C(=O)NCCCCCCCCCCC(=O)O)NC(=O)[C@H]([C@@H](C)O)NC(=O)[C@H](C(C)C)NC(=O)[C@H](CC2CCCCC2)NC(=O)[C@H](CCN)NC(=O)[C@@H](CC(C)C)NC(=O)[C@H](CCCN)NC1=O` [Compound 1190] ({CH2CO}-[4Pal][Phe(4-COOH)]D[Phe(3-Me)]V[Bip]I[Orn][dL][Dab][Cha]VTC[AEEA][Orn][Aun]-OH; thioether N-14) in this work.
An IC50 of 19.7 nM was found for `CC[C@H](C)[C@@H]1NC(=O)[C@H](Cc2ccc(-c3ccccc3)cc2)NC(=O)[C@H](C(C)C)NC(=O)[C@H](Cc2cccc(C)c2)NC(=O)[C@H](CC(=O)O)NC(=O)[C@H](Cc2ccc(C(=O)O)cc2)NC(=O)[C@H](Cc2ccncc2)NC(=O)CSC[C@@H](C(=O)NCCOCCOCC(=O)N[C@@H](CCCCN)C(=O)NCCCCCCCCCCC(=O)O)NC(=O)[C@H]([C@@H](C)O)NC(=O)[C@H](C(C)C)NC(=O)[C@H](CC2CCCCC2)NC(=O)[C@H](CCN)NC(=O)[C@@H](CC(C)C)NC(=O)[C@H](CCCN)NC1=O` [Compound 1191] ({CH2CO}-[4Pal][Phe(4-COOH)]D[Phe(3-Me)]V[Bip]I[Orn][dL][Dab][Cha]VTC[AEEA]K[Aun]-OH; thioether N-14) in this work.
An IC50 of 45.5 nM was found for `CC[C@H](C)[C@@H]1NC(=O)[C@H](Cc2ccc(-c3ccccc3)cc2)NC(=O)[C@H](C(C)C)NC(=O)[C@H](Cc2cccc(C)c2)NC(=O)[C@H](CC(=O)O)NC(=O)[C@H](Cc2ccc(C(=O)O)cc2)NC(=O)[C@H](Cc2ccncc2)NC(=O)CSC[C@@H](C(=O)NCCOCCOCC(=O)N[C@@H](CCCNC(=N)N)C(=O)NCCCCCCCCCCC(=O)O)NC(=O)[C@H]([C@@H](C)O)NC(=O)[C@H](C(C)C)NC(=O)[C@H](CC2CCCCC2)NC(=O)[C@H](CCN)NC(=O)[C@@H](CC(C)C)NC(=O)[C@H](CCCN)NC1=O` [Compound 1192] ({CH2CO}-[4Pal][Phe(4-COOH)]D[Phe(3-Me)]V[Bip]I[Orn][dL][Dab][Cha]VTC[AEEA]R[Aun]-OH; thioether N-14) in this work.
An IC50 of 10.3 nM was found for `C#CC[C@H](NC(=O)COCCOCCNC(=O)[C@H](CCN)NC(=O)[C@@H]1CSCC(=O)N[C@@H](Cc2ccncc2)C(=O)N[C@@H](Cc2ccc(OCC(=O)O)cc2)C(=O)N[C@@H](CC(=O)O)C(=O)N[C@@H](Cc2c[nH]c3ccccc23)C(=O)N[C@@H](C(C)C)C(=O)N[C@@H](Cc2ccc(-c3ccccc3)cc2)C(=O)N[C@@H]([C@@H](C)CC)C(=O)N[C@@H](CCCN)C(=O)N[C@H](CC(C)C)C(=O)N[C@@H](CCN)C(=O)N[C@@H](CC(C)C)C(=O)N[C@@H](C(C)C)C(=O)N[C@@H]([C@@H](C)O)C(=O)N1)C(=O)N[C@@H](CN)C(=O)NCCCCCCCCCCC(=O)O` [Compound 1193] ({CH2CO}-[4Pal]Y(Carboxymethyl)DWV[Bip]I[Orn][dL][Dab]LVTC[Dab][AEEA][Pra][Dap][Aun]-OH; thioether N-14) in this work.
